Entries after “also recorded” stand apart in the source; their conditions may differ.
Key:
[1] = test system: IκBα phosphorylation and degradation in MM.1S cells; assay: Immunoblot of IκBα phosphorylation and degradation triggered by TNFα in MM.1S cells; assay type: cell-based, human; conditions: Dex 1 μM 18 h, PS-341 5 μM 60 min, compound 1 10 μM 90 min, TNFα 5 ng/mL 5 min, FIG. 7; for TNFα-induced phosphorylation of IκBα: presence or absence of IL-6
Method: (§1) MM cells were cultured with PS-341 or compound 1; harvested; washed; and lysed using lysis buffer: 50 mM Tris-HCl (pH 7.4), 150 mM NaCl, 1% NP-40, 5 mM EDTA, 5 mM NaF, 2 mM Na3VO4, 1 mM PMSF, 5 μg/mL leupeptin, and 5 μg/mL aprotinin. For detection of phospho-IκBα, IκBα, phospho-MAPK, phospho-STAT3, ERK2 or alpha-tubulin, cell lysates were subjected SDS-PAGE, transferred to PVDF membrane (Bio-Rad Laboratories, Hercules, Calif.), and immunoblotted with anti-phospho-IκBα, -IκBα, -phospho-MAPK, or -phospho-STAT3 Abs (Cell Signaling, Beverly, Mass.), and anti-alpha-tubulin (Sigma) Abs.
Inhibition of IκBα phosphorylation by compound 1 was assayed in MM.1S and patient MM cells triggered by TNFα. […] To study the dose-dependent effect of compound 1, MM.1S cells were pre-treated with 1.25-40 μM compound 1 for 90 min, and then stimulated by TNFα (5 ng/mL).
The effect of Dex, compound 1, PS-341 and/or IL-6 on TNFα induced phosphorylation of IκBα in MM.1S cells was next examined. […] In contrast compound 1, in the presence or absence of IL-6, inhibits phosphorylation of IκBα. Dex inhibits TNFα-induced degradation of IκBα, whereas IL-6 blocks this effect. Both PS-341 and compound 1 inhibit degradation of IκBα, in the presence or absence of IL-6.

MM.1S cells [2] = conditions: previously reported, Hideshima et al. Blood 96:2943 (2000); cited from earlier work
MM.1S cells [3] = assay: DNA synthesis ([3H]-TdR uptake) in MM.1S cells with Dex, IL-6, Thal or IMiD3; assay type: cell-based, human; conditions: IMiD3 0.25-1 μM, dose dependent, 48 h; FIG. 9
Method: (§2) Proliferation was measured as previously described (Hideshima et al., Blood 96:2943 (2000)). MM cells (3×10^4 cells/well) were incubated in 96-well culture plates (Costar, Cambridge, Mass.) in the presence of media, PS-341, compound 1 and/or Dex or recombinant human IL-6 (Genetics Institute, Cambridge, Mass.) for 48 h at 37° C. DNA synthesis was measured by [^3H]-thymidine ([^3H]-TdR, NEN Products, Boston, Mass.) uptake. Cells were pulsed with [^3H]TdR (0.5 μCi/well) during the last 8 h of 48 h cultures. All experiments were performed in triplicate.

[4] = test system: p42/44 MAPK phosphorylation; assay: Immunoblot of IL-6 induced p42/44 MAPK phosphorylation in MM.1S cells; assay type: cell-based, human; conditions: IL-6 50 ng/mL for 5 min, compound 1 10 μM 90 min, PS-341 5 μM 60 min, FIG. 5
Method: as §1

[5] = test system: ICAM-1 and VCAM-1 expression on both BMSCs and MM cells; conditions: Hideshima et al., Cancer Res. 61:3071 (2001); cited from earlier work
[6] = test system: MM.1S, U266, and RPMI8226 cell lines; assay: DNA synthesis ([3H]-TdR uptake) in MM cell lines; assay type: cell-based, human; conditions: 48 h; FIG. 3B
Method: as §2
To study the direct effect of compound 1 on MM cells, [3H]-TdR uptake was measured in MM.1S, U266, and RPMI8226 cell lines cultured for 48 h in the presence of compound 1 (1.5-50 μM).

SMILES	TNFα-induced phosphorylation of IκBα [1]	MM.1S cell growth (MM.1S cells [2])	p42/44 MAPK phosphorylation [4]	further results
C[C@@H]1C[C@H]2[C@@H]3CCC4=CC(=O)C=C[C@]4(C)[C@@]3(F)[C@@H](O)C[C@]2(C)[C@@]1(O)C(=O)CO [Dex, dexamethasone, reference compound]	does not inhibit			
Nc1cccc2c1CN(C1CCC(=O)NC1=O)C2=O (stereo not shown) [IMiD3, reference compound]		inhibit		DNA synthesis in MM.1S cell (MM.1S cells [3]): significantly (p<0.001) inhibited
COc1cccc(-c2cc(=O)c3ccccc3o2)c1N [PD98059]			selectively inhibits	
CC(C)C[C@H](NC(=O)[C@H](Cc1ccccc1)NC(=O)c1cnccn1)B(O)O [PS-341, reference compound]	does not inhibit; also recorded: enhances		inhibits	TNFα induction of ICAM-1 and VCAM-1 expression [5]: blocks induction; TNFα-induced degradation of IκBα [1]: inhibit; [3H]-TdR uptake in all cell lines tested [6]: completely inhibited
O=C1CCC(N2C(=O)c3ccccc3C2=O)C(=O)N1 (stereo not shown) [Thalidomide]		inhibit		

From patent US9248124B2, “Use of inhibitors of IκB kinase for the treatment of cancer” (Millennium Pharmaceuticals, Inc., priority 2001, dated 2016)
